Patent US12673921B2, “Substituted fluorine-containing imidazole salt compound, preparation method therefor, pharmaceutical composition thereof and use thereof” (XIAMEN VIVOHEALTHS TECHNOLOGY CO., LTD., priority 2019, dated 2026)
Entries after “also recorded” stand apart in the source; their conditions may differ.

Key:
[1] = Liver microsome stability test, Beagle dog liver microsome; format: in vitro ADME; settings: microsomes, 0.5 mg protein/mL microsome, 1 μM compound, 37° C., NADPH, read-out: DLM 0.5 T1/2 (min), half life in Beagle dog liver microsome
Method: The experimental steps were as follows: • 1. Preparation of working solution • 1.1 Intermediate solution: 5 μL of a 10 mM stock solution of sample or control was taken out, and diluted with 495 μl of methanol (Conc.: 100 μM, 99% MeOH). • 1.2 Working solution: 50 μL of the intermediate solution was taken out, and diluted with 450 μL of a 100 mM potassium phosphate buffer (Conc.: 10 μM, 9.9% MeOH). • 2. Preparation of NADPH cofactor
An appropriate amount of NADPH powder was weighed, and dissolved with a MgCl2 (10 mM) solution. • 3. Liver microsome • 3.1 Liver microsome information
• 3.2 Preparation: a microsome working solution with an appropriate concentration was prepared by using a 100 mM potassium phosphate buffer. • 4. Stop solution
Glacial acetonitrile, comprising 100 ng/ml Tolbutamide and 100 ng/ml Labetalol as internal standards. • 5. Experimental procedures • 5.1 10 μL of the working solution of sample or control was added per well to all plates (T0, T5, T10, T20, T30, T60, NCF60), except for the blank group; • 5.2 80 μL of the working solution of microsome was added per well to all plates, followed by incubation for 10 min at 37° C.; • 5.3 10 μL of a 100 mM potassium phosphate buffer was added per well to NCF60, followed by incubation at 37° C. and starting timer 1;
• 5.4 After preheating, 10 μL of NADPH was added per well to each plate, and reaction was started;
Final concentration of each component in the incubation medium:
• 5.6 300 μL of the stop solution was added per well to stop the reaction; • 5.7 The system was shaken for about 10 min; • 5.8 The samples were centrifuged (4000 rpm) at 4° C. for 20 min; • 5.9 To 8 new 96-well plates, 300 μL of HPLC water was added per well, then 100 μL of the supernatant was added, mixed and subjected to LC/MS/MS.
In the above table, HLM 0.5 T1/2 (min) refers to half life (min) of compounds in human liver microsome, DLM 0.5 T1/2 (min) refers to half life (min) of compounds in Beagle dog liver microsome.

high-fat-fed obese mice = experiment: In vivo efficacy in high-fat-fed obese mice (body weight, liver slice); parameters: species or system mouse; settings: 90 days
Description: […]

AMPK = AMPK activation in liver of treated high-fat-fed mice by western blot; format: in vivo, mouse; settings: 90 days after s.c. administration
Description: […]

C57BL/6J male mice = experiment: Sugar tolerance test of mice (ip-GTT); format: in vivo, mouse; settings: intragastric 0.2, 2 mg/kg, glucose 1 g/kg i.p. after 2 h

In the case of `Cc1n(CCCCCCCCCCCC(F)(F)C(F)(F)C(F)(F)C(F)(F)C(F)(F)F)cc[n+]1Cc1c(Cl)cccc1Cl.[Cl-]` [IB-33], the half-life at 1 μM [1] is reported as greater than 145 min, the body weight (high-fat-fed obese mice; s.c. 0.05, 0.15, 0.3 mg/kg once every two days) is reported as “significantly reduce the body weight; also recorded: effective in reducing body weight” and the “fat accumulation in the liver” value (high-fat-fed obese mice; s.c., HE stained liver slice) is reported as “improve the fat accumulation level in the liver; also recorded: effective in reducing fat accumulation in the liver”. For the same compound, the “AMPK activation in the mice (p-AMPK Thr172, p-ACC Ser79 by western blot)” value (AMPK) was “effectively activate AMPK” and the “blood sugar in sugar tolerance test (ip-GTT)” value (C57BL/6J male mice) was “significantly lower blood sugar; also recorded: effective in lowering blood sugar”.
